Measured values as given in patent publication EP4570798A1, “AROMATIC HETEROCYCLIC CYCLOHEXYL AMINOALKYL PIPERIDINE DERIVATIVE, PREPARATION METHOD AND USE THEREOF” (Jiangsu NHWA Pharmaceutical Co., Ltd, priority 2022, dated 2024).
pEC50: −log10 of the molar value.

Experiments:
Dopamine D3 receptor = target: T1, Dopamine D3 receptor (Homo sapiens, UniProt P35462); assay: In vitro dopamine D3 receptor function experiment (CHO-K1/D3/CRE reporter, chemiluminescence); assay type: cell-based; conditions: for pEC50: forskolin 0.4 µM; for Emax: maximum activation rate
T1 construct: expressed in transfected cells; host or cells: CHO-K1
T1 sequence (P35462 whole entry, species assumed): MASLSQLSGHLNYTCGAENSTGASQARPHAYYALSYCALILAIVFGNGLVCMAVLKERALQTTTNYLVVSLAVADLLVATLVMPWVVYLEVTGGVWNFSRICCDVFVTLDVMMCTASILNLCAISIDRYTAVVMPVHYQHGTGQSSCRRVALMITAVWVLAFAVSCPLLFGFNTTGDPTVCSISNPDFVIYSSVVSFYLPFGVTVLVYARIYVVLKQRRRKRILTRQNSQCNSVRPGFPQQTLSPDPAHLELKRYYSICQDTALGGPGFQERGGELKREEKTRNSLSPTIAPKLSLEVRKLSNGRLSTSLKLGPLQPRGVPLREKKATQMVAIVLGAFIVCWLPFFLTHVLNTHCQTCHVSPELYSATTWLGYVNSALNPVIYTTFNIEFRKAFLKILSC
Description: 3.1.1 Cell information: CHO-K1/D3/CRE constructed by referring to the method in Example 5 of CN114369578A.
The first day: cell plating • (1) The cultured cells were digested with trypsin, and after the digestion was terminated with culture medium, the cell suspension was transferred to a centrifuge tube and centrifuged at 750 rpm for 5 min. • (2) The supernatant was discarded, and the pellet was resuspended in an appropriate amount of plating medium.
The following day: experimental detection • (1) The test compounds were diluted to 0.2 mM with DMSO, and the reference compound dopamine was diluted to 0.02 mM. • (2) Compound dilution (4-fold dilution at 8 concentration points) was performed using Bravo, with the starting concentrations of the test compounds and the reference compound being 5 µM and 500 nM, respectively. […] The program selected was an ultrasensitive chemiluminescence detection program.

5-HT1A = target: T2, 5-HT1A (Homo sapiens, UniProt P08908); assay: In vitro 5HT1A receptor function experiment (cAMP, forskolin-stimulated HEK293/5HT1A cells); assay type: cell-based; design: expressed in transfected cells; host or cells: HEK293; conditions: for pEC50: forskolin 1 µM; for Emax: maximum activation rate
T2 sequence (P08908 1-422): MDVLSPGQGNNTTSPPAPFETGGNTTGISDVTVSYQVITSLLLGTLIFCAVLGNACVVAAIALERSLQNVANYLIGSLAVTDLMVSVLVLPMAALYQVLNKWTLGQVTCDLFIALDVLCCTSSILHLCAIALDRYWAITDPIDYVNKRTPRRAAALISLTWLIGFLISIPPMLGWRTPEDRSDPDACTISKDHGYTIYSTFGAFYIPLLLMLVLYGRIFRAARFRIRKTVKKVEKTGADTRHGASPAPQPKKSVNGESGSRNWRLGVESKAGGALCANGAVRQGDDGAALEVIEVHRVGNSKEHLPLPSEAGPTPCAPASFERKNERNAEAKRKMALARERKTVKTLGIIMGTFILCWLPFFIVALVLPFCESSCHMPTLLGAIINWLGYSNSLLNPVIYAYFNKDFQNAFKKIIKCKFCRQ
Description: 1.1.1 Cell information: HEK293/5HT1A: a stably transfected cell strain HEK293/5HT1A constructed by adopting 5HT1A receptor lentivirus to infect HEK293; growth culture medium: DMEM, 10% FBS, and 0.6 µg/mL puro; and cryopreservation culture medium: 70% culture medium, 20% FBS, and 10% DMSO.

[1] = In vitro liver microsome stability, SD rat; conditions: for CLint(liver): SD rat liver microsomes; for CLint scaled at 1 µM / half-life at 1 µM / microsomal CLint at 1 µM: SD, rat, liver microsomes, pH 7.4
Description: (§1) • (1) Buffer preparation: 73.21 g of dipotassium hydrogen phosphate trihydrate and 10.78 g of potassium dihydrogen phosphate were dissolved in 4000 mL of ultrapure water. The pH of the solution was adjusted to within 7.40 ± 0.10 using 10% phosphoric acid or 1 M potassium hydroxide, resulting in a final concentration of 100 mM. • (2) Solution preparation and dilution: Stock solutions of the test compounds at a concentration of 10 mM were prepared in dimethyl sulfoxide (DMSO) and stored at 4 °C, and they were diluted into 100 µM working solutions with pure acetonitrile when used. A stock solution of the control compound testosterone at a concentration of 10 mM was prepared in DMSO and stored at -20 °C, and it was diluted into a 400 µM working solution with pure acetonitrile when used. • (3) Termination solution preparation: The termination solution was acetonitrile containing the internal standard buspirone. The prepared termination solution was stored in a refrigerator at 2-8 °C. • (4) Liver microsome solution preparation: Microsomes from various species (CD-1 mouse, SD rat, and human) were diluted into a 20× working solution using 100 mM potassium phosphate buffer. The final concentration of the microsomes in the reaction system was 0.5 mg/mL. • (5) Reduced nicotinamide adenine dinucleotide phosphate (NADPH) regeneration system preparation: Appropriate amounts of nicotinamide adenine dinucleotide phosphate (NADP), glucose-6-phosphate (G6P), magnesium chloride (MgCl2), and glucose-6-phosphate dehydrogenase (G6PDH) were weighed to prepare stock solutions at concentrations of 65.33 mM, 330 mM, 300 mM, and 250 Units/mL, respectively. The four stock solutions described above were each added to an appropriate amount of buffer, and the mixture was mixed well by gently inverting up and down. […] Several incubation plates were prepared and named T0, T5, T10, T20, T40, T60, PB60, and NCF60, respectively. […] The NCF60 plate was incubated for 60 min with potassium phosphate buffer replacing the NADPH regeneration system solution. The PB60 plate was incubated for 60 min with potassium phosphate buffer replacing the liver microsomes. Samples under all conditions were prepared in triplicate.
(§2) 2 µL of the test compound or control compound and 100 µL of microsome working solution (containing 1 mg/mL liver microsome protein) were added to each of the T0, T5, T10, T20, T40, T60, and NCF60 plates, and 2 µL of the test compound and 100 µL of potassium phosphate buffer were added to the PB60 plate. The plates described above were then pre-incubated in a 37 °C water bath for about 5 min.
(§3) After the pre-incubation, 600 µL of the termination solution was first added to the T0 samples, followed by the addition of 98 µL of NADPH regeneration system working solution. The plate was sealed, shaken, and then allowed to wait for simultaneous processing with subsequent samples. Except for the NCF60 plate where 98 µL of potassium phosphate buffer was added to each sample well, 98 µL of NADPH regeneration system working solution was added to each sample well of the other incubation plates to initiate the reaction. In the reaction system, the final concentrations of the test compound and the control compound were 1 µM and 4 µM, respectively, the concentration of the liver microsomes was 0.5 mg/mL, and the final concentrations of DMSO and acetonitrile were 0.01% (v/v) and 0.99% (v/v), respectively.
(§4) After incubation for an appropriate time (such as 5, 10, 20, 40, and 60 min), 600 µL of the termination solution containing the internal standard was added to each test compound sample and control compound well to terminate the reaction. The plates were sealed, shaken well, and then centrifuged at 4000 ×g and 4 °C for 15 min.

[2] = In vitro liver microsome stability, CD-1 mouse; conditions: for CLint scaled at 1 µM / half-life at 1 µM / microsomal CLint at 1 µM: CD-1, mouse, liver microsomes, pH 7.4; for CLint(liver): CD-1 mouse liver microsomes
Description: as §1, §2, §3, §4

[3] = In vitro liver microsome stability, human; conditions: for CLint(liver): Human liver microsomes; for CLint scaled at 1 µM / half-life at 1 µM / microsomal CLint at 1 µM: human, liver microsomes, pH 7.4
Description: as §1, §2, §3, §4

Row | SMILES | pEC50 (Dopamine D3 receptor) | Emax (Dopamine D3 receptor) | pEC50 (5-HT1A) | Emax (5-HT1A) | other results
1 | CCCN(CC1CCN(c2cccc(Cl)c2Cl)CC1)[C@H]1CCc2nc(N)sc2C1 [Example 7, (S)-N^6-((1-(2,3-Dichlorophenyl)piperidin-4-yl)methyl)-N^6-propyl-4,5,6,7-tetrahydrobenzo[d]thiazole-2,6-diamine] | 8.54 | 122% |  |  | 
2 | CCCN(CC1CCN(c2cccc3sccc23)CC1)[C@H]1CCc2nc(N)sc2C1 [Example 9, (S)-N^6-((1-(Benzo[b]thiophen-4-yl)piperidin-4-yl)methyl)-N^6-propyl-4,5,6,7-tetrahydrobenzo[d]thiazole-2,6-diamine] | 8.68 | 111% | 7.52 | 101% | CLint(liver) [1]: 89.1 mL/min/K g; CLint scaled at 1 µM [1]: 23.7 to 129 mL/min/kg; half-life at 1 µM [1]: 28 min; microsomal CLint at 1 µM [1]: 49.5 µL/min/mg; CLint scaled at 1 µM [2]: 38.6 to 210 mL/min/kg; half-life at 1 µM [2]: 28.2 min; microsomal CLint at 1 µM [2]: 49.1 µL/min/mg; CLint(liver) [2]: 194.5 mL/min/K g; CLint(liver) [3]: 33.4 mL/min/K g; CLint scaled at 1 µM [3]: 8.9 to 48.3 mL/min/kg; half-life at 1 µM [3]: 37.4 min; microsomal CLint at 1 µM [3]: 37.1 µL/min/mg
3 | CCCN(CC1CCN(c2cccc3sccc23)CC1)[C@@H]1CCc2nc(N)sc2C1 [Example 11, (R)-N^6-((1-(Benzo[b]thiophen-4-yl)piperidin-4-yl)methyl)-N^6-propyl-4,5,6,7-tetrahydrobenzo[d]thiazole-2,6-diamine] | 8.48 | 109% | 6.88 | 92.6% | 
4 | CCCN(CC1CCN(c2cccc3sccc23)CC1)C1CCc2nc(N)sc2C1 (stereo not drawn) [Example 12, N^6-((1-(Benzo[b]thiophen-4-yl)piperidin-4-yl)methyl)-N^6-propyl-4,5,6,7-tetrahydrobenzo[d]thiazole-2,6-diamine] |  |  | 7.50 | 115% | 
5 | CCN(CC1CCN(c2cccc3sccc23)CC1)[C@H]1CCc2nc(N)sc2C1 [Example 13, (S)-N^6-((1-(Benzo[b]thiophen-4-yl)piperidin-4-yl)methyl)-N^6-ethyl-4,5,6,7-tetrahydrobenzo[d]thiazole-2,6-diamine] | 8.52 | 133% | 7.44 | 118% | 
6 | CCCN(CC1CCN(C(=O)c2ccc(F)c(Cl)c2)CC1)[C@H]1CCc2nc(N)sc2C1 [Example 15, (S)-(4-(((2-Amino-4,5,6,7-tetrahydrobenzo[d]thiazol-6-yl)(propyl)amino)methyl)piperidin-1-yl)(3-chloro-4-fluorophenyl)methanone] |  |  | 8.33 | 85.1% | 
7 | CCCN(CCC1CCN(C(=O)c2ccc(F)c(Cl)c2)CC1)[C@H]1CCc2nc(N)sc2C1 [Example 16, (S)-(4-(2-((2-Amino-4,5,6,7-tetrahydrobenzo[d]thiazol-6-yl)(propyl)amino)ethyl)piperidin-1-yl)(3-chloro-4-fluorophenyl)methanone] |  |  | 6.84 | 93.7% | 
8 | CCCN(CC1CCN(C(=O)c2ccc(F)c(Cl)n2)CC1)[C@H]1CCc2nc(N)sc2C1 [Example 18, (S)-(4-(((2-Amino-4,5,6,7-tetrahydrobenzo[d]thiazol-6-yl)(propyl)amino)methyl)piperidin-1-yl)(6-chloro-5-fluoropyridin-2-yl)methanone] |  |  | 7.32 | 115% | 
9 | CCCN(CC1CCN(C(=O)c2ccc(F)nc2)CC1)[C@H]1CCc2nc(N)sc2C1 [Example 19, (S)-(4-(((2-Amino-4,5,6,7-tetrahydrobenzo[d]thiazol-6-yl)(propyl)amino)methyl)piperidin-1-yl)(6-fluoropyridin-3-yl)methanone] |  |  | 6.73 | 99.5% | 
10 | CCCN(CC1CCN(C(=O)c2ccc(C#N)nc2)CC1)[C@H]1CCc2nc(N)sc2C1 [Example 20, (S)-5-(4-(((2-Amino-4,5,6,7-tetrahydrobenzo[d]thiazol-6-yl)(propyl)amino)methyl)piperidine-1-carbonyl)pyridinecarbonitrile] |  |  | 6.88 | 115% | 
11 | CCCN(CC1CCN(C(=O)c2cc3ccccc3[nH]2)CC1)[C@H]1CCc2nc(N)sc2C1 [Example 21, (S)-(4-(((2-Amino-4,5,6,7-tetrahydrobenzo[d]thiazol-6-yl)(propyl)amino)methyl)piperidin-1-yl)(1H-indol-2-yl)methanone] | 8.89 | 105% |  |  | 
12 | CCCN(CC1CCN(C(=O)c2cc3ccccc3s2)CC1)[C@H]1CCc2nc(N)sc2C1 [Example 22, (S)-(4-(((2-Amino-4,5,6,7-tetrahydrobenzo[d]thiazol-6-yl)(propyl)amino)methyl)piperidin-1-yl)(benzo[b]thiophen-2-yl)methanone] |  |  | 7.00 | 115% | 
13 | CCCN(CC1CCN(C(=O)c2ccc3ccccc3c2)CC1)[C@H]1CCc2nc(N)sc2C1 [Example 23, (S)-(4-(((2-Amino-4,5,6,7-tetrahydrobenzo[d]thiazol-6-yl)(propyl)amino)methyl)piperidin-1-yl)(naphthalen-2-yl)methanone] |  |  | 6.69 | 101% | 
14 | CCCN(CC1CCN(C(=O)c2cccs2)CC1)[C@H]1CCc2nc(N)sc2C1 [Example 24, (S)-(4-(((2-Amino-4,5,6,7-tetrahydrobenzo[d]thiazol-6-yl)(propyl)amino)methyl)piperidin-1-yl)(thiophen-2-yl)methanone] |  |  | 7.12 | 96.5% | CLint(liver) [1]: 75.2 mL/min/K g; CLint scaled at 1 µM [1]: 23.7 to 129 mL/min/kg; half-life at 1 µM [1]: 33.2 min; microsomal CLint at 1 µM [1]: 41.8 µL/min/mg; CLint scaled at 1 µM [2]: 38.6 to 210 mL/min/kg; half-life at 1 µM [2]: 46.9 min; microsomal CLint at 1 µM [2]: 29.6 µL/min/mg; CLint(liver) [2]: 117.1 mL/min/K g; CLint(liver) [3]: 34.3 mL/min/K g; CLint scaled at 1 µM [3]: 8.9 to 48.3 mL/min/kg; half-life at 1 µM [3]: 36.4 min; microsomal CLint at 1 µM [3]: 38.1 µL/min/mg
15 | CCCN(CC1CCN(C(=O)c2ccco2)CC1)[C@H]1CCc2nc(N)sc2C1 [Example 25, (S)-(4-(((2-Amino-4,5,6,7-tetrahydrobenzo[d]thiazol-6-yl)(propyl)amino)methyl)piperidin-1-yl)(furan-2-yl)methanone] | 8.89 | 106% | 7.38 | 112% | 
16 | CCCN(CC1CCN(C(=O)c2ccc[nH]2)CC1)[C@H]1CCc2nc(N)sc2C1 [Example 26, (S)-(4-(((2-Amino-4,5,6,7-tetrahydrobenzo[d]thiazol-6-yl)(propyl)amino)methyl)piperidin-1-yl)(1H-pyrrol-2-yl)methanone] | 8.92 | 109% | 7.79 | 103% | 
17 | CCCN(CC1CCN(C(=O)c2cncs2)CC1)[C@H]1CCc2nc(N)sc2C1 [Example 27, (S)-(4-(((2-Amino-4,5,6,7-tetrahydrobenzo[d]thiazol-6-yl)(propyl)amino)methyl)piperidin-1-yl)(thiazol-5-yl)methanone] |  |  | 7.06 | 99.9% | CLint(liver) [1]: 25.5 mL/min/K g; CLint scaled at 1 µM [1]: 23.7 to 129 mL/min/kg; half-life at 1 µM [1]: 97.9 min; microsomal CLint at 1 µM [1]: 14.2 µL/min/mg; CLint scaled at 1 µM [2]: 38.6 to 210 mL/min/kg; half-life at 1 µM [2]: 85.8 min; microsomal CLint at 1 µM [2]: 16.2 µL/min/mg; CLint(liver) [2]: 64.0 mL/min/K g; CLint(liver) [3]: 14.7 mL/min/K g; CLint scaled at 1 µM [3]: 8.9 to 48.3 mL/min/kg; half-life at 1 µM [3]: 84.9 min; microsomal CLint at 1 µM [3]: 16.3 µL/min/mg
18 | CCCN(CC1CCN(C(=O)C2CCCCC2)CC1)[C@H]1CCc2nc(N)sc2C1 [Example 29, (S)-(4-(((2-Amino-4,5,6,7-tetrahydrobenzo[d]thiazol-6-yl)(propyl)amino)methyl)piperidin-1-yl)(cyclohexyl)methanone] | 8.55 | 111% | 6.97 | 118% | 
19 | CCCN(CC1CCN(S(=O)(=O)c2ccccc2)CC1)[C@H]1CCc2nc(N)sc2C1 [Example 30, (S)-N^6-((1-(Phenylsulfonyl)piperidin-4-yl)methyl)-N^6-propyl-4,5,6,7-tetrahydrobenzo[d]thiazole-2,6-diamine] |  |  | 7.40 | 125% | 
20 | CCCN(CC1CCN(S(=O)(=O)c2ccc(F)c(Cl)c2)CC1)[C@H]1CCc2nc(N)sc2C1 [Example 31, (S)-N^6-((1-((3-Chloro-4-fluorophenyl)sulfonyl)piperidin-4-yl)methyl)-N^6-propyl-4,5,6,7-tetrahydrobenzo[d]thiazole-2,6-diamine] | 8.44 | 103% | 6.91 | 120% | 
